Assay results: publication PMC9933482 (ACS Omega, 2023)
Values after ≈ are worked out from the molar mass of the structure shown. “Also recorded” adds a separate entry of the source.

Tests used:
HePG-2 cell line = experiment: MTT cytotoxicity assay, HePG-2; format: cell-based, human; details: Homo sapiens, HepG2, 24 h, read-out: IC50 in μg/mL HePG-2, MTT, 24 h treatment
caspase-9 = experiment: Caspase 9 assay; format: cell-based, human; details: for increase in level of active caspase-9 compared to control: HePG-2; for Casp9 OD: HepG2 cells treated with compound
[1] = system: human lung fibroblast cell line WI38; experiment: MTT cell viability, normal lung fibroblast WI38; format: cell-based; details: WI-38, read-out: IC50 in μg/mL WI38
[2] = target: recombinant human carbonic anhydrase XII (hCAXII) (Homo sapiens, UniProt O43570); experiment: hCAXII enzyme inhibition assay; format: biochemical
Chain of recombinant human carbonic anhydrase XII (hCAXII) (O43570 25-291): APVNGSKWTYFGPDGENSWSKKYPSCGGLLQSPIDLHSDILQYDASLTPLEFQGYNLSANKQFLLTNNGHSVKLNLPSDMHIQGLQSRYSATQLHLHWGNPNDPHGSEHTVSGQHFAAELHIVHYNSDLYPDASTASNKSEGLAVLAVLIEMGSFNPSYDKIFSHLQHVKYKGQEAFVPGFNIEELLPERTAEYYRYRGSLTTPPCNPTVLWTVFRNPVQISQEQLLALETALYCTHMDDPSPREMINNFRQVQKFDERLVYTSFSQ

[3] = target: human carbonic anhydrase IX (hCAIX) (Homo sapiens, UniProt Q16790); experiment: biochemical
HePG-2 cells [4] = experiment: Annexin V-FITC/PI apoptosis and necrosis assay by flow cytometry; format: cell-based, human; details: for increase of early apoptotic ratio compared to control cells / increase of late apoptotic % compared to control cells / necrosis compared to the control cell HePG-2: HePG-2; for apoptosis total, cell content % / apoptosis early, cell content % / necrosis, cell content % / apoptosis late, cell content %: HePG-2, compound at IC50; for apoptosis early, cell content %: lower right quadrant; for necrosis, cell content %: upper left quadrant; for apoptosis late, cell content %: upper right quadrant
HePG-2 cells [5] = experiment: Cell cycle analysis by DNA flow cytometry; format: cell-based, human; details: for %G0–G1 (DNA content) / %G2/M (DNA content) / %S (DNA content): HePG-2, compound at IC50, 24 h
MCF-7 cell line = experiment: MTT cytotoxicity assay, MCF-7; format: cell-based, human; details: Homo sapiens, MCF7, 24 h, read-out: IC50 in μg/mL MCF-7, MTT, 24 h treatment

| SMILES | IC50 (HePG-2 cell line) | increase in level of active caspase-9 compared to control (caspase-9) | Casp9 OD (caspase-9) | IC50 [1] | IC50 [2] | IC50 [3] | increase of early apoptotic ratio compared to control cells (HePG-2 cells [4]) | increase of late apoptotic % compared to control cells (HePG-2 cells [4]) | necrosis compared to the control cell HePG-2 (HePG-2 cells [4]) | apoptosis total, cell content % (HePG-2 cells [4]) | apoptosis early, cell content % (HePG-2 cells [4]) | necrosis, cell content % (HePG-2 cells [4]) | apoptosis late, cell content % (HePG-2 cells [4]) | cell cycle comment (phase of arrest) (HePG-2 cells [5]; HePG-2) | %G0–G1 (DNA content) (HePG-2 cells [5]) | %G2/M (DNA content) (HePG-2 cells [5]) | %S (DNA content) (HePG-2 cells [5]) | IC50 (MCF-7 cell line) | further results |
| --- | --- | --- | --- | --- | --- | --- | --- | --- | --- | --- | --- | --- | --- | --- | --- | --- | --- | --- | --- |
| N#CC1CSc2[nH]c(=O)sc2C1c1cn(-c2ccccc2)nc1-c1ccc(Br)cc1 (stereo not drawn) [compound 7e, 7-(3-(4-Bromophenyl)-1-phenyl-1H-pyrazol-4-yl)-2-oxo-3,5,6,7-tetrahydro-2H-thiopyrano-[2,3-d]thiazole-6-carbonitrile] | 9.11 ± 3.2 µg/mL (≈ 18.4 µM) | ~4 fold | 0.813 | 27.1 ± 3.3 µg/mL (≈ 54.6 µM) | 202 ± 11 nM | 67 ± 3 nM | 21 fold | approximately 101 fold | ~3 fold | 36.28% | 11.91% | 3.13% | 21.24% | arrested in phase S; also recorded: cell growth arrest@S | 41.39% | 14.36% | 44.25% | 10.1 ± 2.1 µg/mL (≈ 20.4 µM) | increase of cell ratio in phase S compared to the control (HePG-2 cells [5]; HePG-2): 1.2 fold |
| CCOC(=O)C1CSc2[nH]c(=O)sc2C1c1cn(-c2ccccc2)nc1-c1ccc(Cl)cc1 (stereo not drawn) [compound 7i, Ethyl 7-(3-(4-Chlorophenyl)-1-phenyl-1H-pyrazol-4-yl)-2-oxo-3,5,6,7-tetra-hydro-2H-thiopyrano[2,3-d]thiazole-6-carboxylate] | 7.83 ± 2.1 µg/mL (≈ 15.7 µM) | 3 fold | 0.609 | 19.5 ± 1.6 µg/mL (≈ 39.1 µM) | 123 ± 7 nM | 287 ± 14 nM | 52 fold | ~45 fold | ~3 fold | 41.13% | 28.71% | 2.91% | 9.51% | arrested in phase G2/M; also recorded: cell growth arrest@G2/M | 39.56% | 27.93% | 32.51% | 10.1 ± 1.5 µg/mL (≈ 20.2 µM) | caspase-9 protein level vs untreated cells, Image J analysis (caspase-9; after normalization to β-actin): 2.98 fold; increase of cell ratio in phase G2/M compared to the control (HePG-2 cells [5]; HePG-2): 1.6 fold |
